Test results published in ChEMBL document CHEMBL3046669, “Insecticide resistance of the oriental fruit fly, Bactrocera dorsalis (Hendel) (Diptera: Tephritidae), in mainland China” (2011).
Values after ≈ are worked out from the molar mass of the structure shown.

Experiments:
Assay type in all cases: functional
Bactrocera dorsalis [1] = experiment: Resistance ratio of LC50 for adult Bactrocera dorsalis CH08 to LC50 for adult Bactrocera dorsalis after 24 hr
Bactrocera dorsalis [2] = experiment: Insecticidal activity against adult Bactrocera dorsalis CH08 assessed as mortality after 24 hr; details: CH08, 24 h
Bactrocera dorsalis [3] = experiment: Insecticidal activity against adult Bactrocera dorsalis assessed as mortality after 24 hr
Bactrocera dorsalis [4] = experiment: Resistance ratio of LC50 for adult Bactrocera dorsalis GZ08 to LC50 for adult Bactrocera dorsalis after 24 hr
Bactrocera dorsalis [5] = experiment: Insecticidal activity against adult Bactrocera dorsalis HY08 assessed as mortality after 24 hr; details: HY08, 24 h
Bactrocera dorsalis [6] = experiment: Insecticidal activity against adult Bactrocera dorsalis FZ07 assessed as mortality after 24 hr; details: FZ07, 24 h
Bactrocera dorsalis [7] = experiment: Resistance ratio of LC50 for adult Bactrocera dorsalis NN08 to LC50 for adult Bactrocera dorsalis after 24 hr
Bactrocera dorsalis [8] = experiment: Resistance ratio of LC50 for adult Bactrocera dorsalis WX08 to LC50 for adult Bactrocera dorsalis after 24 hr
Bactrocera dorsalis [9] = experiment: Insecticidal activity against adult Bactrocera dorsalis YJ08 assessed as mortality after 24 hr; details: YJ08, 24 h
Bactrocera dorsalis [10] = experiment: Insecticidal activity against adult Bactrocera dorsalis QY08 assessed as mortality after 24 hr; details: QY08, 24 h
Bactrocera dorsalis [11] = experiment: Insecticidal activity against adult Bactrocera dorsalis CS08 assessed as mortality after 24 hr; details: CS08, 24 h
Bactrocera dorsalis [12] = experiment: Resistance ratio of LC50 for adult Bactrocera dorsalis YJ08 to LC50 for adult Bactrocera dorsalis after 24 hr
Bactrocera dorsalis [13] = experiment: Resistance ratio of LC50 for adult Bactrocera dorsalis GZ07 to LC50 for adult Bactrocera dorsalis after 24 hr
Bactrocera dorsalis [14] = experiment: Resistance ratio of LC50 for adult Bactrocera dorsalis YJ07 to LC50 for adult Bactrocera dorsalis after 24 hr
Bactrocera dorsalis [15] = experiment: Resistance ratio of LC50 for adult Bactrocera dorsalis NN07 to LC50 for adult Bactrocera dorsalis after 24 hr
Bactrocera dorsalis [16] = experiment: Resistance ratio of LC50 for adult Bactrocera dorsalis CS07 to LC50 for adult Bactrocera dorsalis after 24 hr
Bactrocera dorsalis [17] = experiment: Insecticidal activity against adult Bactrocera dorsalis HZ07 assessed as mortality after 24 hr; details: HZ07, 24 h
Bactrocera dorsalis [18] = experiment: Resistance ratio of LC50 for adult Bactrocera dorsalis WX07 to LC50 for adult Bactrocera dorsalis after 24 hr
Bactrocera dorsalis [19] = experiment: Insecticidal activity against adult Bactrocera dorsalis NN07 assessed as mortality after 24 hr; details: NN07, 24 h
Bactrocera dorsalis [20] = experiment: Resistance ratio of LC50 for adult Bactrocera dorsalis MM07 to LC50 for adult Bactrocera dorsalis after 24 hr
Bactrocera dorsalis [21] = experiment: Resistance ratio of LC50 for adult Bactrocera dorsalis CH07 to LC50 for adult Bactrocera dorsalis after 24 hr
Bactrocera dorsalis [22] = experiment: Insecticidal activity against adult Bactrocera dorsalis CS07 assessed as mortality after 24 hr; details: CS07, 24 h
Bactrocera dorsalis [23] = experiment: Resistance ratio of LC50 for adult Bactrocera dorsalis HZ08 to LC50 for adult Bactrocera dorsalis after 24 hr
Bactrocera dorsalis [24] = experiment: Resistance ratio of LC50 for adult Bactrocera dorsalis T-R-48 to LC50 for adult Bactrocera dorsalis
Bactrocera dorsalis [25] = experiment: Insecticidal activity against adult Bactrocera dorsalis ZJ07 assessed as mortality after 24 hr; details: ZJ07, 24 h
Bactrocera dorsalis [26] = experiment: Insecticidal activity against adult Bactrocera dorsalis HK07 assessed as mortality after 24 hr; details: HK07, 24 h
Bactrocera dorsalis [27] = experiment: Insecticidal activity against adult Bactrocera dorsalis GZ07 assessed as mortality after 24 hr; details: GZ07, 24 h
Bactrocera dorsalis [28] = experiment: Resistance ratio of LC50 for adult Bactrocera dorsalis FZ07 to LC50 for adult Bactrocera dorsalis after 24 hr
Bactrocera dorsalis [29] = experiment: Resistance ratio of LC50 for adult Bactrocera dorsalis MM08 to LC50 for adult Bactrocera dorsalis after 24 hr
Bactrocera dorsalis [30] = experiment: Insecticidal activity against adult Bactrocera dorsalis T-R-45 assessed as mortality
Bactrocera dorsalis [31] = experiment: Insecticidal activity against adult Bactrocera dorsalis MM07 assessed as mortality after 24 hr; details: MM07, 24 h
Bactrocera dorsalis [32] = experiment: Resistance ratio of LC50 for adult Bactrocera dorsalis HK07 to LC50 for adult Bactrocera dorsalis after 24 hr
Bactrocera dorsalis [33] = experiment: Insecticidal activity against adult Bactrocera dorsalis MM08 assessed as mortality after 24 hr; details: MM08, 24 h
Bactrocera dorsalis [34] = experiment: Resistance ratio of LC50 for adult Bactrocera dorsalis HZ07 to LC50 for adult Bactrocera dorsalis after 24 hr
Bactrocera dorsalis [35] = experiment: Resistance ratio of LC50 for adult Bactrocera dorsalis CS08 to LC50 for adult Bactrocera dorsalis after 24 hr
Bactrocera dorsalis [36] = experiment: Insecticidal activity against adult Bactrocera dorsalis HK08 assessed as mortality after 24 hr; details: HK08, 24 h
Bactrocera dorsalis [37] = experiment: Resistance ratio of LC50 for adult Bactrocera dorsalis QY07 to LC50 for adult Bactrocera dorsalis after 24 hr
Bactrocera dorsalis [38] = experiment: Resistance ratio of LC50 for adult Bactrocera dorsalis HY08 to LC50 for adult Bactrocera dorsalis after 24 hr
Bactrocera dorsalis [39] = experiment: Insecticidal activity against adult Bactrocera dorsalis QY07 assessed as mortality after 24 hr; details: QY07, 24 h
Bactrocera dorsalis [40] = experiment: Insecticidal activity against adult Bactrocera dorsalis HY07 assessed as mortality after 24 hr; details: HY07, 24 h
Bactrocera dorsalis [41] = experiment: Resistance ratio of LC50 for adult Bactrocera dorsalis FZ08 to LC50 for adult Bactrocera dorsalis after 24 hr
Bactrocera dorsalis [42] = experiment: Insecticidal activity against adult Bactrocera dorsalis HZ08 assessed as mortality after 24 hr; details: HZ08, 24 h
Bactrocera dorsalis [43] = experiment: Insecticidal activity against adult Bactrocera dorsalis GZ08 assessed as mortality after 24 hr; details: GZ08, 24 h
Bactrocera dorsalis [44] = experiment: Insecticidal activity against adult Bactrocera dorsalis T-R-48 assessed as mortality
Bactrocera dorsalis [45] = experiment: Insecticidal activity against adult Bactrocera dorsalis CH07 assessed as mortality after 24 hr; details: CH07, 24 h
Bactrocera dorsalis [46] = experiment: Insecticidal activity against adult Bactrocera dorsalis YJ07 assessed as mortality after 24 hr; details: YJ07, 24 h
Bactrocera dorsalis [47] = experiment: Resistance ratio of LC50 for adult Bactrocera dorsalis ZJ07 to LC50 for adult Bactrocera dorsalis after 24 hr
Bactrocera dorsalis [48] = experiment: Insecticidal activity against adult Bactrocera dorsalis WX07 assessed as mortality after 24 hr; details: WX07, 24 h
Bactrocera dorsalis [49] = experiment: Resistance ratio of LC50 for adult Bactrocera dorsalis T-R-45 to LC50 for adult Bactrocera dorsalis
Bactrocera dorsalis [50] = experiment: Insecticidal activity against adult Bactrocera dorsalis WX08 assessed as mortality after 24 hr; details: WX08, 24 h
Bactrocera dorsalis [51] = experiment: Insecticidal activity against adult Bactrocera dorsalis FZ08 assessed as mortality after 24 hr; details: FZ08, 24 h
Bactrocera dorsalis [52] = experiment: Resistance ratio of LC50 for adult Bactrocera dorsalis QY08 to LC50 for adult Bactrocera dorsalis after 24 hr
Bactrocera dorsalis [53] = experiment: Resistance ratio of LC50 for adult Bactrocera dorsalis HK08 to LC50 for adult Bactrocera dorsalis after 24 hr
Bactrocera dorsalis [54] = experiment: Resistance ratio of LC50 for adult Bactrocera dorsalis HY07 to LC50 for adult Bactrocera dorsalis after 24 hr
Bactrocera dorsalis [55] = experiment: Insecticidal activity against adult Bactrocera dorsalis NN08 assessed as mortality after 24 hr; details: NN08, 24 h

In the case of `COP(=O)(OC)C(O)C(Cl)(Cl)Cl` (stereo not drawn) [TRICHLORFON], the RatioLC50 (Bactrocera dorsalis [1]) is reported as 17.91, the LC50 (Bactrocera dorsalis [2]) is reported as 28.7 µg/mL (≈ 112 µM) and the LC90 (Bactrocera dorsalis [3]) is reported as 2.64 µg/mL (≈ 10.3 µM). The LC50 (Bactrocera dorsalis [3]; Bactrocera dorsalis, 24 h) was 1.61 µg/mL (≈ 6.25 µM), the RatioLC50 (Bactrocera dorsalis [4]) was 8.87 and the LC50 (Bactrocera dorsalis [5]) was 34 µg/mL (≈ 132 µM). The LC50 (Bactrocera dorsalis [6]) was 19.8 µg/mL (≈ 76.8 µM), the RatioLC50 (Bactrocera dorsalis [7]) was 7.39 and the RatioLC50 (Bactrocera dorsalis [8]) was 14.13. For the same molecule, the LC50 (Bactrocera dorsalis [9]) was 8.38 µg/mL (≈ 32.6 µM), the LC50 (Bactrocera dorsalis [10]) was 11.8 µg/mL (≈ 45.8 µM) and the LC50 (Bactrocera dorsalis [11]) was 28.2 µg/mL (≈ 110 µM). It also gave a RatioLC50 (Bactrocera dorsalis [12]) of 5.22, a RatioLC50 (Bactrocera dorsalis [13]) of 19.8 and a RatioLC50 (Bactrocera dorsalis [14]) of 5.25. For the same molecule, the RatioLC50 (Bactrocera dorsalis [15]) was 15.62, the RatioLC50 (Bactrocera dorsalis [16]) was 16.96 and the LC50 (Bactrocera dorsalis [17]) was 26.8 µg/mL (≈ 104 µM). The RatioLC50 (Bactrocera dorsalis [18]) was 19.46, the LC50 (Bactrocera dorsalis [19]) was 25.1 µg/mL (≈ 97.4 µM) and the RatioLC50 (Bactrocera dorsalis [20]) was 17.78. For the same molecule, the RatioLC50 (Bactrocera dorsalis [21]) was 12.71, the LC50 (Bactrocera dorsalis [22]) was 27.2 µg/mL (≈ 106 µM) and the RatioLC50 (Bactrocera dorsalis [23]) was 1.51. The RatioLC50 (Bactrocera dorsalis [24]) was 71.58, the LC50 (Bactrocera dorsalis [25]) was 29.7 µg/mL (≈ 115 µM) and the LC50 (Bactrocera dorsalis [26]) was 14.1 µg/mL (≈ 54.7 µM). It also gave an LC50 (Bactrocera dorsalis [27]) of 31.8 µg/mL (≈ 123 µM), a RatioLC50 (Bactrocera dorsalis [28]) of 12.32 and a RatioLC50 (Bactrocera dorsalis [29]) of 70.45. For the same molecule, the LC90 (Bactrocera dorsalis [30]) was 322.86 µg/mL (≈ 1250 µM), the LC50 (Bactrocera dorsalis [30]; Bactrocera dorsalis, T-R-45) was 93.9 µg/mL (≈ 365 µM) and the LC50 (Bactrocera dorsalis [31]) was 28.5 µg/mL (≈ 111 µM). It also gave a RatioLC50 (Bactrocera dorsalis [32]) of 8.77, an LC50 (Bactrocera dorsalis [33]) of 113 µg/mL (≈ 439 µM) and a RatioLC50 (Bactrocera dorsalis [34]) of 16.72. It also gave a RatioLC50 (Bactrocera dorsalis [35]) of 17.56, an LC50 (Bactrocera dorsalis [36]) of 2.21 µg/mL (≈ 8.58 µM) and a RatioLC50 (Bactrocera dorsalis [37]) of 11.53. The RatioLC50 (Bactrocera dorsalis [38]) was 21.19, the LC50 (Bactrocera dorsalis [39]) was 18.5 µg/mL (≈ 71.9 µM) and the LC50 (Bactrocera dorsalis [40]) was 41.4 µg/mL (≈ 161 µM). For the same molecule, the RatioLC50 (Bactrocera dorsalis [41]) was 20.2, the LC50 (Bactrocera dorsalis [42]) was 2.43 µg/mL (≈ 9.44 µM) and the LC50 (Bactrocera dorsalis [43]) was 14.2 µg/mL (≈ 55.3 µM). For the same molecule, the LC90 (Bactrocera dorsalis [44]) was 635.27 µg/mL (≈ 2470 µM), the LC50 (Bactrocera dorsalis [44]; Bactrocera dorsalis, T-R-48) was 115 µg/mL (≈ 448 µM) and the LC50 (Bactrocera dorsalis [45]) was 20.4 µg/mL (≈ 79.3 µM). For the same molecule, the LC50 (Bactrocera dorsalis [46]) was 8.43 µg/mL (≈ 32.7 µM), the RatioLC50 (Bactrocera dorsalis [47]) was 18.51 and the LC50 (Bactrocera dorsalis [48]) was 31.2 µg/mL (≈ 121 µM). For the same molecule, the RatioLC50 (Bactrocera dorsalis [49]) was 58.34, the LC50 (Bactrocera dorsalis [50]) was 22.7 µg/mL (≈ 88.1 µM) and the LC50 (Bactrocera dorsalis [51]) was 32.4 µg/mL (≈ 126 µM). It also gave a RatioLC50 (Bactrocera dorsalis [52]) of 7.34, a RatioLC50 (Bactrocera dorsalis [53]) of 1.37 and a RatioLC50 (Bactrocera dorsalis [54]) of 25.79. It also gave an LC50 (Bactrocera dorsalis [55]) of 11.9 µg/mL (≈ 46.1 µM).
